Data from patent publication US20260242368A1, “GBA1 AND GCS DUAL MODULATOR” (ONO PHARMACEUTICAL CO., LTD., priority 2023, published 2026).

Tests used:
human GBA2 = molecular target: T1, human GBA2 (Homo sapiens, UniProt Q9HCG7); experiment: Evaluation of human GBA2 enzyme inhibitory activity (GBA2-rich membrane suspension, 4-MUG); type: biochemical; conditions: GBA2-rich membrane of transfected HEK293T cells, CBE preincubation, read-out: GBA2 inhibition IC50
T1 construct: The complete open reading frames for GBA2 (human NM_020944.2) was amplified from human tissue; made in house; host or cells: HEK293T cells, transiently transfected (pCDNA-3.1); washed membrane pellet used as crude enzyme
T1 sequence (Q9HCG7 1-927): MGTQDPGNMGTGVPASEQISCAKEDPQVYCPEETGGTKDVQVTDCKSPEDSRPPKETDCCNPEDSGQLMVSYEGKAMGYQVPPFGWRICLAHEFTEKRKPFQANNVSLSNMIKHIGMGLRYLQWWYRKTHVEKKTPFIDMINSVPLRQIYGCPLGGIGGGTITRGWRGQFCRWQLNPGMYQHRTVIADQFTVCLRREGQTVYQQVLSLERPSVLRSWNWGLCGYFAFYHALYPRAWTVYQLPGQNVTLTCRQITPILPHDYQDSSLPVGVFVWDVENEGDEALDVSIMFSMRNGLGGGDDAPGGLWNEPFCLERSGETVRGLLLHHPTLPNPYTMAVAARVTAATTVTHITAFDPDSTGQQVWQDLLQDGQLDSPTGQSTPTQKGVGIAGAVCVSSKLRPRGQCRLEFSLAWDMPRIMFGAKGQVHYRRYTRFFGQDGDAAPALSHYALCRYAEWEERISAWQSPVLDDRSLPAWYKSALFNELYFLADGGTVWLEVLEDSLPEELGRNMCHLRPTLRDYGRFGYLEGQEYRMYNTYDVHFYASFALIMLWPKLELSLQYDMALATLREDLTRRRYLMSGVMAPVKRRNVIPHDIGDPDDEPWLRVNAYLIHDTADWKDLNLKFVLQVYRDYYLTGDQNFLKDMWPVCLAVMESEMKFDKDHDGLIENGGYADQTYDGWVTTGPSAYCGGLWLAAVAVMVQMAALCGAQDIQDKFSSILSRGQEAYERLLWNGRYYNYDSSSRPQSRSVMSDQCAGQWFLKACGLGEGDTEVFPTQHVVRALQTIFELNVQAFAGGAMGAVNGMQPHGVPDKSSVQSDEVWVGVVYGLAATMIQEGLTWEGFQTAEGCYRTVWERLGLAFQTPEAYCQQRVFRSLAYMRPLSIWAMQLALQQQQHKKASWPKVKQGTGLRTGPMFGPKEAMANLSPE

[1] = molecular target: T2, recombinant GBA enzyme (human GBA1) (Homo sapiens, UniProt P04062); experiment: Evaluation of human GBA1 enzyme inhibitory activity (4-MUG substrate); type: biochemical; conditions: pH5.2, 37° C. 60 min, read-out: GBA1 inhibition IC50
T2 sequence (P04062 40-536): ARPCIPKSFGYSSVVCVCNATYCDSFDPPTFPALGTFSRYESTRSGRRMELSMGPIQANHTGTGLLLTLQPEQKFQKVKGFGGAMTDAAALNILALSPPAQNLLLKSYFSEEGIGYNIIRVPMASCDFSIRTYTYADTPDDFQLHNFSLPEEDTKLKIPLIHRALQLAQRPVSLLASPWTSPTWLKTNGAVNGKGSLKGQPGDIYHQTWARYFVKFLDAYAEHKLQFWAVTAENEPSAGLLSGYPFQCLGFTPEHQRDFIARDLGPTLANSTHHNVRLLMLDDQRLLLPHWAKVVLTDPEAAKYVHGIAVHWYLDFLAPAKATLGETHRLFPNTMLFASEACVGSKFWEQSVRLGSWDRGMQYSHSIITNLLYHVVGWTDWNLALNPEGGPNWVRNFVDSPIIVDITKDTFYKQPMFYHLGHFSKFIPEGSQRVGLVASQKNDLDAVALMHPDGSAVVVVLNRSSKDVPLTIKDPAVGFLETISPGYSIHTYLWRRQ

Human GCS = molecular target: T3, Human GCS (Homo sapiens, UniProt Q16739); experiment: Evaluation of human GCS enzyme inhibitory activity (HL60 cell lysate, NBD-C6 ceramide, LC/MSMS); type: biochemical; conditions: 37° C. 90 min, read-out: GCS inhibition IC50
T3 construct: The lysate of HL60 cells were used in this assay; endogenous in cells; host or cells: HL60 cells (lysate supernatant)
T3 sequence (Q16739 1-394): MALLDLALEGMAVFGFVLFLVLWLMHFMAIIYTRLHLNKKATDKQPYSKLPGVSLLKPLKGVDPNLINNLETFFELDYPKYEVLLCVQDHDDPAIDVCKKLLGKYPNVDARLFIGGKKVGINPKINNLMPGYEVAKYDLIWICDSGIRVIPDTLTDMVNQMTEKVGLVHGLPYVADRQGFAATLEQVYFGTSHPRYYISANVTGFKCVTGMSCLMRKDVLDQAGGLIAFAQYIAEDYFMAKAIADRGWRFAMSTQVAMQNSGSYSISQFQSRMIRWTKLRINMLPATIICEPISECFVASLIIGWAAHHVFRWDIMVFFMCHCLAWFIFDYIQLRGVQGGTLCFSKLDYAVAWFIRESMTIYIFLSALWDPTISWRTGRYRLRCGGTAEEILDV

[2] = test system: GBA1 (β-glucocerebrosidase mutation of N307S) in Gaucher's cell line GM00372; experiment: Evaluation of human GBA1 cellular activity (Gaucher's cell line, 6 days treatment); type: cell-based; conditions: GM00372 cells, DMSO-treated cells as negative control, normalized to protein
Protocol: The Gaucher's cell line with β-glucocerebrosidase mutation of N307S (Coriell Institute, Cat. GM00372) was cultured and expanded using EMEM with 15% FBS. The cell was passaged at least twice and could be used until the 20th passages. The cells were seeded at the density of 1.25×10^4 cells/well in 96-well plate. After cell culturing overnight, 50 μL of cell medium was discarded, and 50 μL of the diluted compound was added (with 0.3% DMSO). The cells were treated with compound for 6 days. On day 6, the cells were washed once with HBSS and incubated in HBSS for 3 h followed by lysing using 30 μL assay buffer (pH5.2 Mcllvaine buffer supplemented with 0.25% sodium taurocholate, 0.5% Triton X-100 and protease cocktail inhibitor) for 5 min at 4° C. on shaker. For GBA enzymatic assay, 15 μL of cell lysate was incubated with 5 μL of 4-MUG (6 mmol/L) for 60 min in 384 well format followed by adding 20 μL of stop solution (1 mmol/L glycine solution adjusted to pH10 using 1 mol/L NaOH). The reaction product of 4-MU was measured (excitation 355 nm, emission 450 nm) on fluorescence spectrophotometer. For the protein quantification, 4 μL of cell lysate was mixed with 36 μL of Pierce BCA reagents for 30 min. The protein was detected according to the manufacturer's instructions. Enzyme activity in cell lysate was normalized to protein concentration. The blank included substrate and assay buffer followed by addition of stop solution. Enzyme activity in cells treated with DMSO was used as a negative control, and results were represented as the percent change in enzyme activity in cells treated with each compound.

SMILES	IC50 (human GBA2) [µM]	IC50 [1] [nM]	IC50 (Human GCS) [nM]	Percent change in enzyme activity at test concentration 0.37 μM [2] [%]	Percent change in enzyme activity at test concentration 1.1 μM [2] [%]	Percent change in enzyme activity at test concentration 3.3 μM [2] [%]	Percent change in enzyme activity at test concentration 10 μM [2] [%]	Percent change in enzyme activity at test concentration […] [2] [%]
CCOc1cc(COC[C@@H](F)CCCCN2C[C@H](O)[C@@H](O)[C@H](O)[C@@H](O)C2)ccc1F (single isomer, unassigned) [Example 72]	> 10	1200	190	214	248	259	284	160
O[C@H]1[C@H](O)[C@@H](O)CN(CCCC[C@H](F)COCc2csc(-c3ccc(F)cc3)n2)C[C@@H]1O (single isomer, unassigned) [Example 74]	> 10	1700	30	150	185	193	216	96
Cc1nc(COC[C@@H](F)CCCCN2C[C@H](O)[C@@H](O)[C@H](O)[C@@H](O)C2)c(-c2cc(F)cc(F)c2)o1 (single isomer, unassigned) [Example 100]				147	145	163	169	142
CCc1ccc(COC[C@@H](F)CCCCN2C[C@H](O)[C@@H](O)[C@H](O)[C@@H](O)C2)cc1 (single isomer, unassigned) [Example 101]	> 10	1100	170	157	209	219	227	157
O[C@H]1[C@H](O)[C@@H](O)CN(CCCC[C@H](F)COCc2ccc(Cl)cc2)C[C@@H]1O (single isomer, unassigned) [Example 107]	> 10	1200	130	110	141	157	199	109
Cc1ccc(COC[C@@H](F)CCCCN2C[C@H](O)[C@@H](O)[C@H](O)[C@@H](O)C2)cc1 (single isomer, unassigned) [Example 135]	> 10	3200	670	108	127	153	191	102
O[C@H]1[C@H](O)[C@@H](O)CN(CCCC[C@H](F)COCc2ccc(-c3cc(F)cc(F)c3)nn2)C[C@@H]1O (single isomer, unassigned) [Example 139]	> 10	5100	220	119	154	157	204	115
Cc1ccc(COCCCCCCN2C[C@H](O)[C@@H](O)[C@H](O)[C@@H](O)C2)cc1 [Example 1, (3S,4R,5R,6S)-1-{6-[(4-methylbenzyl)oxy]hexyl}-3,4,5,6-azepanetetrol]	> 10	5100	2000	166	200	221	230	155
O[C@H]1[C@H](O)[C@@H](O)CN(CCCCCCOCc2csc(-c3cc(F)cc(F)c3)n2)C[C@@H]1O [Example 21, (3S,4R,5R,6S)-1-(6-{[2-(3,5-difluorophenyl)-1,3-thiazol-4-yl]methoxy}hexyl)-3,4,5,6-azepanetetrol]	> 10	2400	60					
